According to US20240226103A1, “SOLID DISPERSION OF A HER2 INHIBITOR” (Boehringer Ingelheim International GmbH, priority 2022, published 2024):
Converted amounts (≈) assume the structure as drawn. Where two headings read alike, the source gives them in different places.

Key:
Assay type in all cases: physicochemical
[1] = Equilibrium solubility in aqueous media at different pH and in biorelevant media (UPLC-UV-MS); conditions: for Equilibrium solubility Conc.: 24 h; for solubility thermodynamic at 24 h: thermodynamic from solid, read-out: Equilibrium solubility Conc.
Method: Discard the first ˜3.5 mL then collect 3 aliquots (˜0.5 mL) to be analyzed. • Quantification of the 3 aliquots by UPLC-UV-MS with the appropriate calibration curve.
• Instrument: Waters Acquity H-Class with PDA and QDa detectors • Column: Waters Acquity BEH C18, 1.7 μm, 2.1×50 mm • Flow rate: 0.65 mL/min • UV detection: 254 nm or 410 nm • Column temperature: 40° C.±2° C. • Sample temperature: 23° C.±2° C. • Injection volumes: 0.4 μL (for concentration between 1-500 μg/mL) and 9 μL (for concentration between 0.050-1 μg/mL) • Mobile phase: gradient with solutions A and B prepared as follows
• Ionisation mode: ESI+/ESI− • Source temperature: 600° C. • Capillary voltage: 0.8 kV • Cone voltage: +20V/−20V
Two standard calibration curves (chromatographic UV peak area vs. concentration) are established in DMSO at 254 nm or 410 nm for each solid form and for the solid dispersion, one between 0.025 or 0.050 μg/mL and 1 μg/mL (injection volume=9 μL) and another between 1 μg/mL and 500 μg/mL (injection volume=0.4 μL). The calibration curves are linear in the whole investigated concentration range.

[2] = Organic solubility screening in DCM:methanol solvent blends (visual observation)
Method: Solubility is determined by visual observation.

[3] = pH-dependent solubility of compound (1) in aqueous media
Excerpt: Consequently, the in vivo absorption of compound (1) is affected by gastric pH. […] Such a decrease may occur to different extents in different patients due to inter-patient stomach pH variability.

[4] = Acetate Buffer pH 4, room temperature
[5] = Phosphate Buffer pH 7.4, room temperature

SMILES | Equilibrium solubility Conc. [1, 4] | Equilibrium solubility Conc. ([1]; Acetate Buffer pH 5, room temperature) | Equilibrium solubility Conc. ([1]; FaSSIF pH 6.5, 37° C.) | Equilibrium solubility Conc. ([1]; FeSSIF pH 5.0, 37° C.) | Equilibrium solubility Conc. ([1]; HCl 0.01N pH 2, room temperature) | Equilibrium solubility Conc. ([1]; Phosphate Buffer pH 6.8, room temperature) | Equilibrium solubility Conc. [1, 5] | Solubility ([2]; DCM:methanol 70:30) | Solubility ([2]; DCM:methanol 80:20) | Solubility ([2]; DCM:methanol 90:10) | decrease in solubility between pH 1.2 and pH 6.8 [3] | solubility thermodynamic at 24 h ([1]; FaSSIF, 37 °C, pH 6.5, fassif, FaSSIF pH 6.5, 37° C.) | solubility thermodynamic at 24 h ([1]; FeSSIF, 37 °C, pH 5, fessif, FeSSIF pH 5.0, 37° C.) | solubility thermodynamic at 24 h ([1]; HCl 0.01N, pH 2, simulated gastric fluid, HCl 0.01N pH 2, room temperature) | solubility thermodynamic at 24 h ([1]; acetate buffer, pH 5, aqueous buffer, Acetate Buffer pH 5, room temperature) | solubility thermodynamic at 24 h ([1]; phosphate buffer, pH 6.8, aqueous buffer, Phosphate Buffer pH 6.8, room temperature)
C=CC(=O)NC1CCN(c2ncc3ncnc(Nc4ccc(Oc5ccc6c(c5)ncn6C)c(C)c4)c3n2)CC1 [compound (1) Form IV, N-{1-[8-({3-methyl-4-[(1-methyl-1H-1,3-benzodiazol-5-yl)oxy]phenyl}amino)-[1,3]diazino[5,4-d]pyrimidin-2-yl]piperidin-4-yl}prop-2-enamide] | 3 µg/mL | 0.075 µg/mL | 0.726 µg/mL | 44 µg/mL | 761 µg/mL | 0.027 µg/mL | 0.018 µg/mL |  |  |  |  |  |  |  |  | 
C=CC(=O)NC1CCN(c2ncc3ncnc(Nc4ccc(Oc5ccc6c(c5)ncn6C)c(C)c4)c3n2)CC1 [compound (1), N-{1-[8-({3-methyl-4-[(1-methyl-1H-1,3-benzodiazol-5-yl)oxy]phenyl}amino)-[1,3]diazino[5,4-d]pyrimidin-2-yl]piperidin-4-yl}prop-2-enamide] |  |  |  |  |  |  |  | >16.8 wt % | >18.7 wt % | >17.1 wt % | about 10^5 fold |  |  |  |  | 
C=CC(=O)NC1CCN(c2ncc3ncnc(Nc4ccc(Oc5ccc6c(c5)ncn6C)c(C)c4)c3n2)CC1 [compound (1) Form III, N-{1-[8-({3-methyl-4-[(1-methyl-1H-1,3-benzodiazol-5-yl)oxy]phenyl}amino)-[1,3]diazino[5,4-d]pyrimidin-2-yl]piperidin-4-yl}prop-2-enamide] | 6.6 µg/mL |  |  |  |  |  | 0.056 µg/mL |  |  |  |  | 0.803 µg/mL (≈ 1.5 µM) | 49 µg/mL (≈ 91.5 µM) | 1320 µg/mL (≈ 2470 µM) | 0.126 µg/mL (≈ 0.235 µM) | 0.025 µg/mL (≈ 0.0467 µM)
